Experiments:
Experiment in all cases: relative viability (nuclei count vs DMSO), 5 days (fraction); higher = more cells survive
[1] = test system: 201T
In short: (§1)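 Relative viability is defined as nuclei in treated wells over nuclei in vehicle wells. Duplicate plates were run and medians reported. Lung cancer cell lines in 1536-well plates were dosed by pin tool one day after seeding, with one drug or with a fixed anchor-drug dose plus five library-drug doses (not always all listed) in √10 steps, and nuclei were counted after 5 days.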

[2] = test system: COR-L 105
In short: as §1

[3] = test system: ChaGo-K-1
In short: as §1

[4] = test system: EPLC-272H
In short: as §1

[5] = test system: H3255
In short: as §1

[6] = test system: HCC-78
In short: as §1

[7] = test system: HCC-827
In short: as §1

[8] = test system: LC-2-ad
In short: as §1

[9] = test system: LCLC-97TM1
In short: as §1

[10] = test system: NCI-H1666
In short: as §1

[11] = test system: NCI-H1915
In short: as §1

[12] = test system: NCI-H2087
In short: as §1

[13] = test system: NCI-H2126
In short: as §1

[14] = test system: NCI-H2347
In short: as §1

[15] = test system: NCI-H23
In short: as §1

[16] = test system: NCI-H2405
In short: as §1

[17] = test system: NCI-H520
In short: as §1

[18] = test system: NCI-H647
In short: as §1

[19] = test system: PC-14
In short: as §1

[20] = test system: RERF-LC-KJ
In short: as §1

Nc1ccn([C@@H]2O[C@H](CO)[C@@H](O)[C@@H]2O)c(=O)n1 [Cytarabine] + CC1(C)CCC(c2ccc(Cl)cc2)=C(CN2CCN(c3ccc(C(=O)NS(=O)(=O)c4ccc(N[C@H](CCN5CCOCC5)CSc5ccccc5)c(S(=O)(=O)C(F)(F)F)c4)cc3)CC2)C1 [Navitoclax] (partner 0.5 µM)
relative viability ([1]; first compound 0.005 µM): 1.24 | relative viability ([1]; first compound 0.01581 µM): 1.28 | relative viability ([1]; first compound 0.05 µM): 1.19 | relative viability ([1]; first compound 0.1581 µM): 1.16 | relative viability ([1]; first compound 0.5 µM): 1.14 | relative viability ([2]; first compound 0.005 µM): 0.699 | relative viability ([2]; first compound 0.01581 µM): 0.795 | relative viability ([2]; first compound 0.05 µM): 0.588 | relative viability ([2]; first compound 0.1581 µM): 0.435 | relative viability ([2]; first compound 0.5 µM): 0.34 | relative viability ([3]; first compound 0.005 µM): 0.74 | relative viability ([3]; first compound 0.01581 µM): 0.505 | relative viability ([3]; first compound 0.05 µM): 0.453 | relative viability ([3]; first compound 0.1581 µM): 0.364 | relative viability ([3]; first compound 0.5 µM): 0.37 | relative viability ([4]; first compound 0.005 µM): 1.01 | relative viability ([4]; first compound 0.01581 µM): 0.849 | relative viability ([4]; first compound 0.05 µM): 0.842 | relative viability ([4]; first compound 0.1581 µM): 0.33 | relative viability ([4]; first compound 0.5 µM): 0.247 | relative viability ([5]; first compound 0.005 µM): 0.451 | relative viability ([5]; first compound 0.01581 µM): 0.506 | relative viability ([5]; first compound 0.05 µM): 0.411 | relative viability ([5]; first compound 0.1581 µM): 0.325 | relative viability ([5]; first compound 0.5 µM): 0.332 | relative viability ([6]; first compound 0.005 µM): 0.879 | relative viability ([6]; first compound 0.01581 µM): 0.652 | relative viability ([6]; first compound 0.05 µM): 0.684 | relative viability ([6]; first compound 0.1581 µM): 0.364 | relative viability ([6]; first compound 0.5 µM): 0.219 | relative viability ([7]; first compound 0.005 µM): 0.615 | relative viability ([7]; first compound 0.01581 µM): 0.529 | relative viability ([7]; first compound 0.05 µM): 0.398 | relative viability ([7]; first compound 0.1581 µM): 0.264 | relative viability ([7]; first compound 0.5 µM): 0.252 | relative viability ([8]; first compound 0.005 µM): 0.385 | relative viability ([8]; first compound 0.01581 µM): 0.328 | relative viability ([8]; first compound 0.05 µM): 0.268 | relative viability ([8]; first compound 0.1581 µM): 0.2 | relative viability ([8]; first compound 0.5 µM): 0.188 | relative viability ([9]; first compound 0.005 µM): 0.401 | relative viability ([9]; first compound 0.01581 µM): 0.283 | relative viability ([9]; first compound 0.05 µM): 0.171 | relative viability ([9]; first compound 0.1581 µM): 0.107 | relative viability ([9]; first compound 0.5 µM): 0.115 | relative viability ([10]; first compound 0.005 µM): 0.755 | relative viability ([10]; first compound 0.01581 µM): 0.796 | relative viability ([10]; first compound 0.05 µM): 0.718 | relative viability ([10]; first compound 0.1581 µM): 0.41 | relative viability ([10]; first compound 0.5 µM): 0.355 | relative viability ([11]; first compound 0.005 µM): 0.799 | relative viability ([11]; first compound 0.01581 µM): 0.719 | relative viability ([11]; first compound 0.05 µM): 0.714 | relative viability ([11]; first compound 0.1581 µM): 0.411 | relative viability ([11]; first compound 0.5 µM): 0.386 | relative viability ([12]; first compound 0.005 µM): 0.973 | relative viability ([12]; first compound 0.01581 µM): 1.04 | relative viability ([12]; first compound 0.05 µM): 0.924 | relative viability ([12]; first compound 0.1581 µM): 0.542 | relative viability ([12]; first compound 0.5 µM): 0.452 | relative viability ([13]; first compound 0.005 µM): 0.866 | relative viability ([13]; first compound 0.01581 µM): 0.705 | relative viability ([13]; first compound 0.05 µM): 0.679 | relative viability ([13]; first compound 0.1581 µM): 0.53 | relative viability ([13]; first compound 0.5 µM): 0.454 | relative viability ([14]; first compound 0.005 µM): 0.911 | relative viability ([14]; first compound 0.01581 µM): 0.786 | relative viability ([14]; first compound 0.05 µM): 0.635 | relative viability ([14]; first compound 0.1581 µM): 0.531 | relative viability ([14]; first compound 0.5 µM): 0.449 | relative viability ([15]; first compound 0.005 µM): 0.753 | relative viability ([15]; first compound 0.01581 µM): 0.551 | relative viability ([15]; first compound 0.05 µM): 0.394 | relative viability ([15]; first compound 0.1581 µM): 0.206 | relative viability ([15]; first compound 0.5 µM): 0.173 | relative viability ([16]; first compound 0.005 µM): 0.851 | relative viability ([16]; first compound 0.01581 µM): 0.671 | relative viability ([16]; first compound 0.05 µM): 0.424 | relative viability ([16]; first compound 0.1581 µM): 0.373 | relative viability ([16]; first compound 0.5 µM): 0.114 | relative viability ([17]; first compound 0.005 µM): 0.955 | relative viability ([17]; first compound 0.01581 µM): 0.902 | relative viability ([17]; first compound 0.05 µM): 1.14 | relative viability ([17]; first compound 0.1581 µM): 0.904 | relative viability ([17]; first compound 0.5 µM): 0.781 | relative viability ([18]; first compound 0.005 µM): 0.73 | relative viability ([18]; first compound 0.01581 µM): 0.517 | relative viability ([18]; first compound 0.05 µM): 0.148 | relative viability ([18]; first compound 0.1581 µM): 0.092 | relative viability ([18]; first compound 0.5 µM): 0.0675 | relative viability ([19]; first compound 0.005 µM): 0.918 | relative viability ([19]; first compound 0.01581 µM): 1.03 | relative viability ([19]; first compound 0.05 µM): 0.803 | relative viability ([19]; first compound 0.1581 µM): 0.314 | relative viability ([19]; first compound 0.5 µM): 0.119 | relative viability ([20]; first compound 0.005 µM): 0.772 | relative viability ([20]; first compound 0.01581 µM): 1.02 | relative viability ([20]; first compound 0.05 µM): 1.08 | relative viability ([20]; first compound 0.1581 µM): 0.509 | relative viability ([20]; first compound 0.5 µM): 0.325
